Data set [1] has as its system caspase-activated DNase (CAD). Nature of the data set: CAD immunocytochemistry combined with TUNEL (caspase-mediated apoptosis). Format: cell-based. To be noted: melanoma cells, 5 or 10 µM, 24 h. An excerpt:
(§1) The elevation was dose-dependent.
(§2) Figure 4. […] (c) Representative images. […] Mean ± s.e.m., n = 4 per group.
(§3) Figure 5. […] (a) Representative images of TUNEL colocalized or not colocalized with each of the three protein markers used in this study. […] Mean ± s.e.m., n = 4 per group.
(§4) Thus, to determine the mechanism of action of our compounds on melanoma cells in vitro, we applied the fluorescent TUNEL assay combined with quantitative ICC for three markers: HO1 for oxidative cell injury, CAD for caspase-mediated apoptosis and EndoG for caspase-independent apoptosis. […] However, none of the compounds or dacarbazine induced apoptotic endonucleases. This is not surprising because apoptotic endonucleases are commonly present in the cell in sufficient amounts to be able to destroy DNA upon cell death without induction (which most likely would not be possible in a dead cell).

The test system of data set [2] is endonuclease G (EndoG). Kind of data set: EndoG immunocytochemistry combined with TUNEL (caspase-independent apoptosis). The class given is cell-based. As to conditions: melanoma cells, 24 h.
Description: as §1, §2, §3, §4

In data set [3] the test system is HFF-1 cell line. Nature of the data set: Toxicity for normal human foreskin fibroblast cell line. The class given is cell-based. As to conditions: normal human foreskin fibroblast HFF-1. From the text:
To assess the potential use of lead compounds as anti-melanoma agents, we tested their toxicity for the normal human foreskin fibroblast (HFF-1) cell line taking into consideration that MM is usually surrounded by the cells of this kind. The effects of some of the potent compounds on this cell line were very encouraging (table 4).

The test system of data set [4] is SK-MEL-28 cell line. Kind of data set: Annexin V flow cytometry apoptosis assay. The class given is cell-based. To be noted: SK-MEL-28, 200 µM. The method, then: After determining the selective toxicity of potent molecules, we determined their mode of action against the melanoma cell line. Apoptosis or programmed cell death is a physiological process to remove unwanted or damaged mammalian cells. We detected apoptosis mode of cell death by our potent compounds using flow cytometry-based Annexin V assay. Compound 3 caused 23% apoptosis at 6 µM and 54% apoptosis at 12 µM (figure 3). 3-Fluorophenyl derivative (5) was a very potent apoptosis-inducing agent that caused 100% cell death at 12 µM concentration. Dacarbazine, the positive control, caused 22% apoptotic cell death at 200 µM concentration.
Figure 3. Apoptosis measurements using Annexin V flow cytometry assay of compounds 3 and 5 against SK-MEL-28 cell line at 6 and 12 µM concentrations. DMSO and dacarbazine (Daca) are negative and positive controls, respectively. Mean ± s.e.m., n = 3 per group.

The test system of data set [5] is heme oxygenase-1 (HO1). Nature of the data set: HO1 immunocytochemistry combined with TUNEL (oxidative injury). The class given is cell-based. As to conditions: melanoma cells, 5 or 10 µM, 24 h.
Description: as §1, §2, §3, §4

The test system of data set [6] is melanoma cells. Kind of data set: TUNEL staining for DNA fragmentation and irreversible cell death. As to conditions: 5 or 10 µM, 24 h. From the text: Apoptosis is usually associated with profound DNA fragmentation that makes the cell death irreversible. DNA fragmentation could be due to the increasing of nuclear DNA access to apoptotic endonucleases and the induction of these enzymes. This DNA fragmentation is best measured by using the terminal deoxynucleotidyl transferase dUTP nick-end labelling (TUNEL) assay. […] Immunostaining for major marker of oxidative injury, heme oxygenase-1 (HO1) was done to determine whether the test compounds induce oxidative injury. […] Activation of endonucleases and their translocation to the nucleus is actually the last step when cell death becomes irreversible. It is often preceded by an oxidative cell injury that activates or aggravates the cell death mechanism. To measure whether our compounds induce oxidative injury, we chose to measure HO1 which is a well-established mechanistic marker of oxidative injury. Because HO1 is not a nuclear marker and it is not translocated to the nucleus and contact DNA during cell death, instead of colocalization by pixels, we counted the percentage of TUNEL-positive (dead) cells which are also HO1-positive (figure 5a). […] We next examined whether caspase-activated DNase (CAD), a known mechanistic marker of caspase-mediated apoptosis, is colocalized with TUNEL during cell death induced by dacarbazine or our test compounds (3, 4 and 5).
Figure 4. […]

Data set [7] relates to UACC-62. Nature of the data set: NCI DTP 60 cell line five-concentration test, melanoma panel. Format: cell-based. To be noted: Homo sapiens, UACC-62, UACC-62 melanoma cell line. As for the experimental part:
(§5) In our effort to develop new methodologies to synthesize bioactive compounds [11–14], we have synthesized a number of thiazole and thiazolo-androstenone derivatives. We submitted 50 of the synthesized thiazole–androstenone derivatives to the National Cancer Institute (NCI) Development Therapeutics Program (DTP) to test against 60 cancer cell lines (https://dtp.cancer.gov/). These compounds were tested for cytotoxicity at a single dose of 10 µM. […] Eight of these chimeric compounds (figure 2) were selected for further testing at five different concentrations to determine 50% growth inhibition (GI50), total growth inhibition (TGI) and 50% lethal concentration (LC50) values. […] Overall, amino-thiazole derivatives (table 1, 1–7) were more toxic to melanoma cell lines than phenyl thiazole derivatives (8). Fluoro and oxy (hydroxy and methoxy) derivatives were the potent growth inhibitors of the tested cancer cell lines. LOX IMVI cell line was the most susceptible among all the melanoma cell lines used against the tested compounds (table 1). […] Phenyl ethyl derivative (1) inhibited the growth of all the cell lines except SK-MEL-2. […] 2,4-Dimethyl substituted derivative (7) is a potent growth inhibitor of all the tested cell lines of the melanoma panel.

In data set [8] the test system is SK-MEL-28. The data set is described as above. To be noted: Homo sapiens, SK-MEL-28, SK-MEL-28 melanoma cell line. The class given is cell-based. The method, then:
as §5

In data set [9] the test system is LOX IMVI. The data set is described as above. Format: cell-based. To be noted: Homo sapiens; LOX IMVI melanoma cell line. As for the experimental part:
as §5

In data set [10] the test system is SK-MEL-2. The data set is described as above. Format: cell-based. As to conditions: Homo sapiens; SK-MEL-2 melanoma cell line. The method, then: as §5
Data set [11] deals with UACC-257. The data set is described as above. Format: cell-based. As to conditions: Homo sapiens; UACC-257 melanoma cell line. The method, then: as §5
For data set [12], the system named is MDA-MB-435. The data set is described as above. Format: cell-based. As to conditions: Homo sapiens; MDA-MB-435 melanoma cell line. The method, then: as §5
In data set [13] the test system is M14. The description is as above. The class given is cell-based. To be noted: Homo sapiens, M14, M14 melanoma cell line. The method, then:
as §5

Data set [14] relates to MALME-3M. The description is as above. The class given is cell-based. To be noted: Homo sapiens; MALME-3M melanoma cell line. As for the experimental part: as §5
Data set [15] relates to SK-MEL-5. Described as above. The class given is cell-based. To be noted: Homo sapiens; SK-MEL-5 melanoma cell line. As for the experimental part: as §5
Data set [16] has as its system melanoma panel. Nature of the data set: NCI DTP test, statements for the whole melanoma panel. The class given is cell-based. As for the experimental part:
as §5

Take `CN(C)/N=N/c1[nH]cnc1C(N)=O` [dacarbazine, reference compound]: the CAD mean intensity entry in data set [1] is on record as “No significant induction”. Besides, in [1], the “colocalization of CAD with TUNEL (caspase-mediated apoptosis)” value is “did not induce any association of CAD with TUNEL”. Moreover, the figures for the “EndoG overlap with TUNEL staining (caspase-independent apoptosis)” value in data set [2] (5 µM) and in [2] (10 µM) were “did not show any effect” and “significant increase”, respectively. Moreover, the EndoG mean intensity entry in [2] (5 or 10 µM) was “No significant induction”. For the same compound, the “toxicity against HFF1 cells (in words)” value in data set [3] was “did not show any notable toxicity”. Moreover, the half-maximal inhibitory concentration (IC50) in [3] (read-out: IC50 against HFF1 cell line) was more than 100 µM. This compound also came in with an apoptotic cell death in data set [4] of 22%. Moreover, the “HO1 staining in TUNEL-positive cells (oxidative injury)” value in data set [5] is “without induction of HO1”. The “cytotoxicity by TUNEL staining (TUNEL-positivity)” value in data set [6] is on record as “negligent”.
On to `C[C@]12CCc3nc(Nc4ccc(F)cc4F)sc3C1=CC[C@@H]1[C@@H]2CC[C@]2(C)C(=O)CC[C@@H]12` [Compound 6], for which the GI50 was more than 100 µM in data set [7]; more than 100 µM in data set [8]; 1.71 µM in data set [9]; more than 100 µM in data set [10]; more than 100 µM in data set [11]; more than 100 µM in data set [12]. Further, the concentration for 50% growth inhibition (GI50) was more than 100 µM in [13], more than 100 µM in [14] and 1.88 µM in data set [15]. Also, the “TGI values against the cell lines of the melanoma panel” value in data set [16] is on record as “did not show any useful TGI values”.

For the origin of these results see PMC8355692, “Antimelanoma activities of chimeric thiazole–androstenone derivatives” (Royal Society Open Science, 2021).
